Data as given in patent publication US8815863B2, “Compounds and therapeutic use thereof for protein kinase inhibition” (priority 2009, dated 2014).
Converted amounts (≈) assume the structure as drawn. “Also recorded” adds a separate entry of the source. Read-outs that look alike come from different tables or passages of the source.

Experiments:
Chk2 = target: T1, Chk2 (Homo sapiens, UniProt O96017); assay: Kinase activity measurement (K-LISA), Chk2; format: biochemical
T1 construct: purchased Upstate Biotechnology, Inc
T1 sequence (O96017 whole entry): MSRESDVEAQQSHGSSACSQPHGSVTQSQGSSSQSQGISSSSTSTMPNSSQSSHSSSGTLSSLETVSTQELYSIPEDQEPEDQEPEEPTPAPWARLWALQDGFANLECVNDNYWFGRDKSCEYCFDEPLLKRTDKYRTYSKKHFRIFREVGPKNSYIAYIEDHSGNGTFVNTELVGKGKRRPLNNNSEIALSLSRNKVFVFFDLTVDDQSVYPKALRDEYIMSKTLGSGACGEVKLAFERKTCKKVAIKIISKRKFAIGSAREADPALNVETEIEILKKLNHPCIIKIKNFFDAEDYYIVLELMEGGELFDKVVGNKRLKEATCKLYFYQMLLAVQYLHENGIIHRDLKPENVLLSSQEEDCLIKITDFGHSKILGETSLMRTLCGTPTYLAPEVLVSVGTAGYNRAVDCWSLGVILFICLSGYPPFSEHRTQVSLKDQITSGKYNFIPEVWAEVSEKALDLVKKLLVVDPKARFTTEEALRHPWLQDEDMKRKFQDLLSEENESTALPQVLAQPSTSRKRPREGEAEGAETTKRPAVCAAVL
Experimental: (§1) The K-LISA™ Chk-1/Chk2 Activity Kit was supplied by Calibiochem (Cat. No. CBA020). Chk1 and Chk2 are from Upstate Biotechnology, Inc., and C-Met, HER2, EGFR are from Sigma. The Chk Peptide ([…]) (SEQ ID NO: 1) is from Cell Signaling, Inc., (Beverly, Mass., USA), and is stored at −70° C.
(§2) Kinase activity measurements: Enzyme, sample, Chk peptide, 5 μm ATP, and reaction buffer are added to the holes of biotinylated reaction plates. After the reaction is terminated with a stop buffer, the contents are discarded, replaced with 100 μl/hole of serine kinase antibody, to detect phosphorylation, and HRP-labeled goat-anti-rabbit IgG is added and incubated at room temperature for 1 hour. TMB reaction is conducted to determine substrate phosphorylation, with proper controls. OD450 is measured using VERSAmax (Sunnyvale, Calif., USA). The rate of inhibition is calculated as the follows: Rate of Inhibition (I)=(reaction hole OD Value−OD value of Enzyme-free control)/(OD value of negative control−OD value of enzyme-free control)×100%.

Human colon cancer HT-29 [1] = assay: In vitro anti-cancer cell activity, HT-29; format: cell-based; details: read-out: In vitro anti-cancer cell activities IC50, Human colon cancer HT-29
Experimental: (§3) Some of the above compounds are tested in vitro or in vivo for their anti-cancer or anti-tumor activities, as well as cellular toxicity tests using SRB and MTT methods. The in vitro anti-cancer effects on human cancer HT-29 and mouse lung cancer cell 3LL are summarized in Table 1, and the effects on treating transplanted human colon cancer […] on nude mice are summarized in Table 2.

Mouse Lung Cancer (3LL) = assay: In vitro anti-cancer cell activity, 3LL; format: cell-based; details: read-out: In vitro anti-cancer cell activities IC50, Mouse Lung Cancer (3LL)
Experimental: as §3

HT-29 Cell line = assay: SRB cell multiplication test, sensitizing to cytotoxic antitumor drugs; details: for sensitizing effects on cytotoxic antitumor drugs at the cellular level (in words): DDP, 5-fu, pemetrexed, oxaliplatin as named in the sentence
Experimental: 3.2 Cell Lines: HT-29 Cell line (from ATCC).
Test Protocol: The effects of the compounds on cancer cell multiplication was measured using Sulforhodamine B (SRB). Specifically, log phase cells are inoculated into the holes of 96-hole culture plates, allowed to grow using the wall-adhesion procedure at 37° C. under 5% CO2. The test compound at 9 different concentrations were added, each concentration in duplicate, with appropriate saline water and cell-less controls. The cells are cultured for a further 72 hours, and fixed with TCA, and SRB is added for staining, and washed, and air-dried. After adding the Tris solution, the OD value was measured at 510 nm using a Spectra Max 190. The rate of inhibition is calculated according to the formula below: Rate of Inhibition=(ODcontrol−ODdrug)/ODcontrol×100%.
The IC50 is calculated based on the above ratios.

[2] = test system: human liver cancer QGY-7701; assay: MTT cytotoxicity, QGY-7701; format: cell-based
Experimental: (§4) Cell lines: human low differentiation stomach cancer BGC-823, human liver cancer QGY-7701, mouse lung cancer 3LL.
(§5) Experimental Details: The cyto-toxicity of XC608 is measured using the MTT method. Specifically: (1) cell culture: (i) frozen cells are removed from liquid nitrogen, rapidly thawed in 37° C. water bath; added to 6 ml DMEM culture medium in a 10 ml centrifuge tubes under sterile conditions, centrifuged at 1000 rpm for 5 min., with the supernatant removed. To the sediment is added 5-6 ml of DMEM medium, and re-suspended and cultured overnight at 37° C. (ii) The cells are centrifuged, washed twice with PBS, and treated with 3-4 drops of trypsin solution for about 3 minute at 37° C., and monitored under microscope to ensure that all cells are separated from the culture tube walls, and re-suspended in additional DMEM medium. […] (2) Test compound preparation: XC608 and XC302 are dissolved in PBS and serial diluted to 1000, 100, 10, 1, 0.1 and 0.01 μg/ml. (3) The prepared test compound solution is added to the holes of a 96-hole culture plate, 10 μl/hole, with two holes per concentration point, and 10 μl PBS as control. (4) Prepare a suspension of log phase cell in a DMEM medium containing 10% new born bovine serum with a cell concentration of 2×10^5/ml.
(§6) (5) add 90 μl cell suspension to each of the holes containing the test compound or control. […]

mouse lung cancer 3LL = assay: MTT cytotoxicity, 3LL; format: cell-based; details: 48 hours
Experimental: as §4, §5, §6

[3] = test system: human low differentiation stomach cancer BGC-823; assay: MTT cytotoxicity, BGC-823; format: cell-based
Experimental: as §4, §5, §6

human colon cancer HT-29 [4] = assay: Nude mice transplanted with human colon cancer HT-29, XC608 with ADR and 5-fu; format: in vivo; details: HT-29 in nude mice
Experimental: (§7) Nude mice transplanted with human colon cancer HT-29 and SW-620 and breast cancer MDA-MB-231 are tested using XC608 alone and in combination with ADR and 5-fu.

cdc2 phosphorylation = cdc2 phosphorylation induced by topoisomerase I; format: cell-based
Source text: The effects of XC608 on the activity of protein kinases Chk1, Chk2 and c-met, and on cells entering cell cycle after drug-induced DNA damages and cellular reactions to DNA damages are studied.

c-Met = target: T2, c-Met (Homo sapiens, UniProt P08581); assay: Kinase activity measurement, c-Met; format: biochemical
T2 construct: purchased Sigma
T2 sequence (P08581 25-1390): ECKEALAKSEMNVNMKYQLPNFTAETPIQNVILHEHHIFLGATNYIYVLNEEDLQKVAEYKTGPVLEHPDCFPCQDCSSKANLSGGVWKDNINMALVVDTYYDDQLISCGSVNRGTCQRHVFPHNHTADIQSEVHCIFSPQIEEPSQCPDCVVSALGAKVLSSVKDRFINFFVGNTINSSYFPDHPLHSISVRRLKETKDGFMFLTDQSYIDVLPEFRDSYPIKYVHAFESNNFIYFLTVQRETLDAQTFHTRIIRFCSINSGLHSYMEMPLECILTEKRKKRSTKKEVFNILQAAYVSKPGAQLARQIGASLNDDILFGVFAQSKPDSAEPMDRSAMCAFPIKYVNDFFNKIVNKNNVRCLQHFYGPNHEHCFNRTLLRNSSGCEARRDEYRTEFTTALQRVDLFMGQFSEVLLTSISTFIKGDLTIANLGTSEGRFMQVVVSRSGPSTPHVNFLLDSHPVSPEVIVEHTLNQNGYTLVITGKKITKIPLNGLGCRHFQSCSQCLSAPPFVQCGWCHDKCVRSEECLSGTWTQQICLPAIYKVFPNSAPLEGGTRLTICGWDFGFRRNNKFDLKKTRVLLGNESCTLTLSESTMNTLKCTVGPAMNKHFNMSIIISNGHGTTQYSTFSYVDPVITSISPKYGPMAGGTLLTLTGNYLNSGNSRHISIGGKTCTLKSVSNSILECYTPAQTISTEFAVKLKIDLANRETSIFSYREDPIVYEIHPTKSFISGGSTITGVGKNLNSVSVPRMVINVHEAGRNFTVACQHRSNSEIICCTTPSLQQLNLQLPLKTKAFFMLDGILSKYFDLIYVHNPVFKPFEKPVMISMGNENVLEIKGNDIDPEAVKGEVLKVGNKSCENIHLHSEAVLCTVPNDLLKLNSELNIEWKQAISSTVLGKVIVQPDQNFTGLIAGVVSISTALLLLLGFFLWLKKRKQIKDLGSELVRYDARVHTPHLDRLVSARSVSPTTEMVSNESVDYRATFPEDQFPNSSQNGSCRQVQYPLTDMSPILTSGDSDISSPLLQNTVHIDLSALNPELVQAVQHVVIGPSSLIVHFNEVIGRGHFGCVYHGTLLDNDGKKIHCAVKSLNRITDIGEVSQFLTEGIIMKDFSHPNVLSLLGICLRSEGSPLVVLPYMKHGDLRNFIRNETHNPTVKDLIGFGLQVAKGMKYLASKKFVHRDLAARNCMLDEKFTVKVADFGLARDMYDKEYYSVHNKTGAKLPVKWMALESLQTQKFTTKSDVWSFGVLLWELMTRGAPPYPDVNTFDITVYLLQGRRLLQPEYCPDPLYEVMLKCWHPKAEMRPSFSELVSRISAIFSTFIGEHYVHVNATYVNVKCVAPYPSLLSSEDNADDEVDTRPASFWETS
Experimental: as §1, §2

[5] = test system: human colon cancer SW-620; assay: Nude mice transplanted with human colon cancer SW-620, XC608 with ADR and 5-fu; format: in vivo; details: SW-620 in nude mice
Experimental: as §7

EGFR = target: T3, EGFR (Homo sapiens, UniProt P00533); assay: Kinase activity measurement, EGFR; format: biochemical
T3 construct: purchased Sigma
T3 sequence (P00533 25-1210): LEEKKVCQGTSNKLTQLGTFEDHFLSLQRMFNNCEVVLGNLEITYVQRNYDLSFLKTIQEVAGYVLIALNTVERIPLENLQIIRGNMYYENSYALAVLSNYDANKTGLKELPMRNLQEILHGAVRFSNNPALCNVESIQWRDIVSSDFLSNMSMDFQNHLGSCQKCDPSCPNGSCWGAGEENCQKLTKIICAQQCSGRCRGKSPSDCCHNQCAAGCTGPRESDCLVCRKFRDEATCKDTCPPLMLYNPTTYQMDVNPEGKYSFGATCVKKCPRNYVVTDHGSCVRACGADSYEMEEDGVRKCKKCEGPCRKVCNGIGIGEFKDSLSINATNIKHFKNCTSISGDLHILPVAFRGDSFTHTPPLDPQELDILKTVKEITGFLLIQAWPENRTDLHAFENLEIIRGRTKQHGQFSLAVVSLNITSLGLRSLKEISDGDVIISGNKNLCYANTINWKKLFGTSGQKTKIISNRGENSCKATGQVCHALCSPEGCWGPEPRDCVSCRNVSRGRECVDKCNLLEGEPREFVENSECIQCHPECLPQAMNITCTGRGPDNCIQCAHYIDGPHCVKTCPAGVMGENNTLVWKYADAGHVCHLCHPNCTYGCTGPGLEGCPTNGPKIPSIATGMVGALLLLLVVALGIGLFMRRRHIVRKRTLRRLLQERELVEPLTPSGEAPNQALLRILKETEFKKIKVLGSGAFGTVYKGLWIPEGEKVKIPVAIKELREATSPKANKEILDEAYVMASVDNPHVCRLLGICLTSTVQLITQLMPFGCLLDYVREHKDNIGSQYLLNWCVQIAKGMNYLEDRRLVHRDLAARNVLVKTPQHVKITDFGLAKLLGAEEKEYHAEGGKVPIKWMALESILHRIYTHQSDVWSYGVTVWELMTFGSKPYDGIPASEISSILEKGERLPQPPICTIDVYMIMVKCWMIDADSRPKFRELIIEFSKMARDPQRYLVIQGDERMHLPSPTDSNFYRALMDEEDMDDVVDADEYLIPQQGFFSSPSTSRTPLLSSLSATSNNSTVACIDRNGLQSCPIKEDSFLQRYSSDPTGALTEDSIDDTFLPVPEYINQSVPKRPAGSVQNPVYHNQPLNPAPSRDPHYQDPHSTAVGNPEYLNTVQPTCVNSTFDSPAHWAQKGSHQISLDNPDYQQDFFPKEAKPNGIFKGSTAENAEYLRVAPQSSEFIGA
Experimental: as §1, §2

Chk1 = target: T4, Chk1 (Homo sapiens, UniProt O14757); assay: Kinase activity measurement (K-LISA), Chk1; format: biochemical
T4 construct: purchased Upstate Biotechnology, Inc
T4 sequence (O14757 1-476): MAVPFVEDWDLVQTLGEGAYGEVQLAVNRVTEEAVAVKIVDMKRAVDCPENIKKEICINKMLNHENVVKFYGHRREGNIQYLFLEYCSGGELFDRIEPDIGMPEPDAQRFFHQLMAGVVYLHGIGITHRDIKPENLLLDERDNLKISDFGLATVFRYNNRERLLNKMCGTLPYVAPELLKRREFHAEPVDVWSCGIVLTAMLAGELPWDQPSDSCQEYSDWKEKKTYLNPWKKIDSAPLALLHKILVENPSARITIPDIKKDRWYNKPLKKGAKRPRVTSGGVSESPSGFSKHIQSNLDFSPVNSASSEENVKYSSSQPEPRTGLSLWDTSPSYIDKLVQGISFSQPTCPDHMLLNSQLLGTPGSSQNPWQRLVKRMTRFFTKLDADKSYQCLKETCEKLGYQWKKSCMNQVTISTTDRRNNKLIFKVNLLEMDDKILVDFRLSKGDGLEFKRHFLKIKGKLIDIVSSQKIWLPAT
Experimental: The K-LISA™ Chk-1/Chk2 Activity Kit was supplied by Calibiochem (Cat. No. CBA020). Chk1 and Chk2 are from Upstate Biotechnology, Inc., and C-Met, HER2, EGFR are from Sigma.
as §2, with “After” for “Kinase activity measurements: Enzyme, sample, Chk peptide, 5 μm ATP, and reaction buffer are added to the holes of biotinylated reaction plates. After”

HER2 = target: T5, HER2 (Homo sapiens, UniProt P04626); assay: Kinase activity measurement, HER2; format: biochemical
T5 construct: purchased Sigma
T5 sequence (P04626 23-1255): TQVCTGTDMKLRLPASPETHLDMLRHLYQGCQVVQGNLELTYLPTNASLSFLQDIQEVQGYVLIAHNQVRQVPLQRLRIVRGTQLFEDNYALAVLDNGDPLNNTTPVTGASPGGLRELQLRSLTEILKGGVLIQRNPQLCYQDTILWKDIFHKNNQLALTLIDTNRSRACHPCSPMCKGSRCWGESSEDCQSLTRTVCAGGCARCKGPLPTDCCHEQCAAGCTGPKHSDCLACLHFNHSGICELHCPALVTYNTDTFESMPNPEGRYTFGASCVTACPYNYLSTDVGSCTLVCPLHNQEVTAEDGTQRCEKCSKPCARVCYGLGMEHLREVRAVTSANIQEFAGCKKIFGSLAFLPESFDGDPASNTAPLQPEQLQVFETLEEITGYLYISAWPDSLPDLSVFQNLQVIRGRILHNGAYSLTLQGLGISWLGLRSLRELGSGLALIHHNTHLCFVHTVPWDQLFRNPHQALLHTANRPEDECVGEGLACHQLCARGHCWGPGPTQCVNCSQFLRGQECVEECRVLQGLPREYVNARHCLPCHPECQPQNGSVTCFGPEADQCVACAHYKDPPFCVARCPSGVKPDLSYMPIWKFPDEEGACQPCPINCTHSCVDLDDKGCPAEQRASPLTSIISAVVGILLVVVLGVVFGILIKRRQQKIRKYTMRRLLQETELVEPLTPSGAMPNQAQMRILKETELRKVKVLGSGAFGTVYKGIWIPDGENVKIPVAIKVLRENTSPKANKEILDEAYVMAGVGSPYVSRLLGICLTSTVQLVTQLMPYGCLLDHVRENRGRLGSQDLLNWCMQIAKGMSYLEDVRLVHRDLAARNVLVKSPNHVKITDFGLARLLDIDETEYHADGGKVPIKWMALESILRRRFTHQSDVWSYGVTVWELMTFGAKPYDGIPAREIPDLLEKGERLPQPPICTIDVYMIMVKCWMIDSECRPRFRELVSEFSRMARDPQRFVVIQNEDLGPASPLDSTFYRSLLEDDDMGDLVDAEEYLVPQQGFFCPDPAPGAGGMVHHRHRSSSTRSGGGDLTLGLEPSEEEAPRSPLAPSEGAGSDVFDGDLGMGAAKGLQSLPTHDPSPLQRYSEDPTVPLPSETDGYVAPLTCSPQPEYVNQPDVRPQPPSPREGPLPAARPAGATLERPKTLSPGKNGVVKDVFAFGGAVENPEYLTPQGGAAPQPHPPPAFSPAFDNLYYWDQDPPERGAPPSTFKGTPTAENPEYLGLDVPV
Experimental: as §1, §2

[6] = Homo sapiens, HT-29, 72 h, read-out: IC50 Drug alone
[7] = read-out: IC50 +10 nM AZD7762, HT-29, SRB, 72 hours, drug +10 nM AZD7762
[8] = read-out: IC50 +100 nM AZD7762, HT-29, SRB, 72 hours, drug +100 nM AZD7762
[9] = read-out: IC50 +1 μM XC608, HT-29, SRB, 72 hours, drug +1 μM XC608
[10] = read-out: IC50 Drug alone, HT-29, SRB, 72 hours, drug alone

## NC(=O)Nc1cc(-c2cccc(F)c2)sc1C(=O)N[C@H]1CCCNC1 [AZD7762]
Chk2; 100 nM, read-out: Inhibition (%) (Mean ± SD) Chk2
  inhibition at 0.1 µM: 99%

## NC(=O)c1nnc(NC2CCCNC2)c2cc(-c3ccc(F)cc3)sc12 (centres unmarked) [Compound 1, 2-(4-fluorophenyl)-4-(3-piperidineamino)-thieno[2,3-d]pyridazine-7-carboxylic acid amide]
Human colon cancer HT-29 [1]
  IC50: 1580 nM
Mouse Lung Cancer (3LL)
  IC50: 1880 nM

## O=c1[nH]cc(F)c(=O)[nH]1 [Compound 5-Fu, 5-fluorouracil]
HT-29 Cell line; [6]
  IC50: 1100 nM
HT-29 Cell line; [7]
  IC50: 1000 nM
HT-29 Cell line; [8]
  IC50: 300 nM
HT-29 Cell line; [9]
  IC50: 200 nM

## N.N.[Cl][Pt][Cl] [DDP, cisplatin]
HT-29 Cell line; [7]
  IC50: 5200 nM
HT-29 Cell line; [8]
  IC50: 1300 nM
HT-29 Cell line; [9]
  IC50: 1300 nM
HT-29 Cell line; [10]
  IC50: 7700 nM

## CC(=O)O[C@H]1C(=O)[C@@]2(C)[C@H]([C@H](OC(=O)c3ccccc3)[C@]3(O)C[C@H](OC(=O)[C@H](O)[C@@H](NC(=O)c4ccccc4)c4ccccc4)C(C)=C1C3(C)C)[C@]1(OC(C)=O)CO[C@@H]1C[C@@H]2O [Paclitaxel, paclitaxel]
HT-29 Cell line; [6]
  IC50: 3 nM
HT-29 Cell line; [8]
  IC50: 5 nM
HT-29 Cell line; [9]
  IC50: 2 nM

## CS(=O)(=O)O.CS(=O)(=O)O.O.O.c1cnc2ccc(Nc3nc(NC4CC4)c4nc[nH]c4n3)cc2c1 [XC302]
[2]; 48 hours
  IC50, inhibition of cancer cell multiplication, QGY-7701: 6.69 µg/mL
Mouse lung cancer 3LL
  IC50, inhibition of cancer cell multiplication, 3LL: 2.96 µg/mL
[3]; 48 hours
  IC50, inhibition of cancer cell multiplication, BGC-823: 4.77 µg/mL

## NC(=O)c1nnc(N[C@H]2CCCNC2)c2cc(-c3cccc(F)c3)sc12 [XC608]
Chk2
  effect on activity of Chk2 (in words): clearly inhibits; also recorded: strongly inhibits
Chk2; 1 μM, read-out: Inhibition (%) (Mean ± SD) Chk2
  inhibition at 1 µM: 90 ± 13.2%
Human colon cancer HT-29 [4]
  sensitizing effects on the treatment effects of ADR and 5-fu (in words): significant sensitizing effects
HT-29 Cell line; cell cultures, gemcitabine
  sensitizing effect on gemcitabine: more than 20 times
HT-29 Cell line; gemcitabine
  sensitizing effects on cytotoxic antitumor drugs at the cellular level (in words): strong sensitizing effects
HT-29 Cell line; gemcitabine, listed as XC-608
  sensitizing effects on cytotoxic antitumor drugs at the cellular level (in words): effective in sensitizing
[2]; Homo sapiens, QGY7701, 48 hours, read-out: IC50, inhibition of cancer cell multiplication, QGY-7701
  IC50: 5.14 µg/mL (≈ 13.8 µM)
cdc2 phosphorylation
  effect on cdc2 phosphorylation induced by topoisomerase I (in words): eliminates; also recorded: reduces
Mouse lung cancer 3LL; Mus musculus, read-out: IC50, inhibition of cancer cell multiplication, 3LL
  IC50: 1.05 µg/mL (≈ 2.83 µM)
c-Met
  effect on c-met (in words): not apparent effect
c-Met; 1 μM, read-out: Inhibition (%) (Mean ± SD) c-Met
  inhibition at 1 µM: 15.9%
[5]
  sensitizing effects on the treatment effects of ADR and 5-fu (in words): significant sensitizing effects
EGFR
  effect on EGFR (in words): not apparent effect
EGFR; 1 μM, read-out: Inhibition (%) (Mean ± SD) EGFR
  inhibition at 1 µM: 15.9 ± 5.3%
Chk1
  effect on activity of Chk1 (in words): clearly inhibits; also recorded: strongly inhibits
  specificity for Chk1 (conclusion in words): specific Chk1 inhibitor
Chk1; 1 μM, read-out: Inhibition (%) (Mean ± SD) Chk1
  inhibition at 1 µM: 85 ± 11.1%
HER2
  effect on HER2 (in words): not apparent effect
HER2; 1 μM, read-out: Inhibition (%) (Mean ± SD) HER2
  inhibition at 1 µM: 10.2 ± 1.3%
[3]; Homo sapiens, BGC-823, 48 hours, read-out: IC50, inhibition of cancer cell multiplication, BGC-823
  IC50: 7.11 µg/mL (≈ 19.1 µM)

## O=C1[O][Pt]2([NH][C@@H]3CCCC[C@H]3[NH]2)[O]C1=O [oxaliplatin]
HT-29 Cell line; [7]
  IC50: 2500 nM
HT-29 Cell line; [8]
  IC50: 1100 nM
HT-29 Cell line; [9]
  IC50: 1300 nM
HT-29 Cell line; [10]
  IC50: 1600 nM
